Measured values taken from publication PMC9103815, “Phytochemical Analysis, α-Glucosidase and α-Amylase Inhibitory Activities and Acute Toxicity Studies of Extracts from Pomegranate (Punica granatum) Bark, a Valuable Agro-Industrial By-Product” (Foods, 2022).

Target: T1, pancreatic α-amylase (Homo sapiens, UniProt P04746)
T1 construct: purchased Sigma-Aldrich
T1 sequence (P04746 16-511): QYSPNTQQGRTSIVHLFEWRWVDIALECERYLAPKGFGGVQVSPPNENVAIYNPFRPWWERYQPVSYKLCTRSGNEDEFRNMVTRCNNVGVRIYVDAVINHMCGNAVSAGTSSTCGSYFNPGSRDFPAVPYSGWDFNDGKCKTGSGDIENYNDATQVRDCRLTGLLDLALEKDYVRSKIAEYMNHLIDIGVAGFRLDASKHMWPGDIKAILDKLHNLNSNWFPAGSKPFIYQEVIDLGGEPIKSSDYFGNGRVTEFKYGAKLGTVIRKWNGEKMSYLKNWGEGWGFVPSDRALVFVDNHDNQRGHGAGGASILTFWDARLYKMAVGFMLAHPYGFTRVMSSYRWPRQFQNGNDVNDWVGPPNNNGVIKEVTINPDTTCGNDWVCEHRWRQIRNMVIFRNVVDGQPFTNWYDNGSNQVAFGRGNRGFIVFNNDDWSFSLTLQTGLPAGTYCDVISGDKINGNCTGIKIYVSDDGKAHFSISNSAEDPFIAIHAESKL
Test: In vitro inhibition of pancreatic α-amylase (starch, DNSA)
Format: biochemical
Details: pure commercial standards; triplicate; Figure 7 A-C
Method: Pancreatic α-amylase inhibition activity was assessed according to the method described by Daoudiet al. [25]. […] The solutions were prepared by dissolving the enzymes and samples in a phosphate buffer solution (0.1 M, pH 6.9). The mixtures were incubated for 10 min at 37 °C. Next, 200 μL of 1% starch also dissolved in a phosphate buffer was added to the reaction mixture, and all test tubes were incubated for another 20 min at 37 °C. To stop the reaction, 600 μL of DNSA (1 g of 3,5-dinitrosalicylic acid dissolved in 20 mL of NaOH(2N), combined with 30 g of KNaC4H4O6, and filled up to 100 mL with distilled water) was added. Afterward, the mixture was posed in a water bath at 100 °C for 8 min, then it was put in an ice-cold-water bath for a few minutes. About 1 mL of distilled water was added to the sample tubes before their absorbance measurement at 540 nm.
The percentage of inhibition was computed using the following formula:(2) Inhibitory activity (%)=Abs control 540 nm− Abs sample 540 nm/Abs control 540 nm×100
Increasing concentrations were utilized to calculate the IC50 value. The enzymatic assays were carried out as indicated above.

| Compound | IC50 |
| --- | --- |
| O=c1oc2c(O)c(O)cc3c(=O)oc4c(O)c(O)cc1c4c23 [Ellagic acid] | 29.4 ± 4.57 µM |
| Oc1cc(O)c2c(c1)O[C@@H](c1ccc(O)c(O)c1)[C@H](O)C2 [Catechin, (−)-catechin] | 30.8 ± 2.11 µM |
